Patent US20020103127A1, “Inhibitors of proteasomal activity for stimulating hair growth” (priority 1998, published 2002)
Where a SMILES comes first, the peptide text is derived from it. [ ]: non-standard residue; d: D form. The star is where a group is joined. Nva = CCC[C@H](N)C(=O)O; Cbz = O=C(OCc1ccccc1)*; OtBu = CC(C)(C)O*

Tests used:
[1] = tested on: hair follicles; assay: Modified in vivo calvarial assay: number of hair follicles after injection over the calvaria; parameters: species or system Swiss ICR mice; details: for number of hair follicles: administered in the same way as PSI (injection over the calvaria)
Protocol: Male ICR Swiss white mice, aged 4-6 weeks and weighing 13-26 gm, are employed, using 4-5 mice per group. The calvarial bone growth assay is performed as described in PCT application WO95/242 11, incorporated by reference. Briefly, the test compound or appropriate control vehicle is injected into the subcutaneous tissue over the right calvaria of normal mice. Typically, the control vehicle is the vehicle in which the compound was solubilized, and is PBS containing 5% DMSO or is PBS containing Tween (2 μl/10 ml). The animals are sacrificed on day 14 and bone growth measured by histomorphometry. Bone samples for quantitation are cleaned from adjacent tissues and fixed in 10% buffered formalin for 24-48 hours, decalcified in 14% EDTA for 1-3 weeks, processed through graded alcohols; and embedded in paraffin wax. Three to five μm sections of the calvaria are prepared, and representative sections are selected for histomorphometric assessment of the effects on bone formation and bone resorption. Sections are measured by using a camera lucida attachment to trace directly the microscopic image onto a digitizing plate. Bone changes are measured on sections cut 200 μm apart, over 4 adjacent 1×1 mm fields on both the injected and noninjected sides of the calvaria. New bone is identified by its characteristic woven structure, and osteoclasts and osteoblasts are identified by their distinctive morphology. Histomorphometry software (OsteoMeasure, Osteometrix, Inc., Atlanta) is used to process digitizer input to determine cell counts and measure areas or perimeters.
(§1) The assay described above to assess the effect of compounds on calvarial bone growth can also be used to assess the ability of compounds to stimulate hair growth. The test compound or appropriate control vehicle is applied to the upper and lower back of male ICR Swiss white mice either topically or by subcutaneous injection. The vehicle is selected as appropriate for the compound to be tested and for the route of administration. Optionally, the hair in the test area may be removed prior to administration. After a suitable interval, typically 7 days, the mice are anesthetized and a biopsy of the dorsal treatment area is taken using a 6 mm dermal punch. The specimens are fixed in 10% buffered formalin and imbedded in paraffin wax, and sectioned and stained to observe hair follicles. In addition, photography can be used to observe and record hair growth; typically such growth is observed after 14-18 days. After a suitable interval, typically 21 days, the animals may be euthanized and the hair analyzed for fiber analysis and the tissue from the treatment area analyzed for quantitation of hair follicles.
The in vivo bone calvarial growth assay of Example 3 was modified to observe the number of hair follicles in treated mice. […]

[2] = tested on: hair follicles; assay: Stimulation of hair growth: subcutaneous injection into scalp and dorsal region after wax hair stripping; format: in vivo, Male Swiss ICR mice; details: 1 mg/kg/day s.c. three times a day for five days
From the text: as §1
Male Swiss ICR mice were first treated to remove hair from the scalp and dorsal regions as follows. Paraffin wax was liquefied by heating to 55° C. and the liquefied wax then applied by brush to the scalp and/or back (under anesthesia). The wax was allowed to solidify and then removed. The day following hair stripping, PSI (1 mg/kg/day) was injected subcutaneously three times a day for five days into the scalp and dorsal region.
The mice were sacrificed on day 21 and histology was performed on the dermis of the scalp and of the dorsal region. […] Upon closer examination, it was observed that mice that had received only vehicle had quiescent hair follicles.

[3] = tested on: hair follicles; assay: Topical dose response of PSI (dose requirements); format: in vivo, mice
Protocol: In order to determine the minimal effective dosage of PSI, when used topically, a dose response curve for PSI was prepared. All experiments were preformed according to current good laboratory practice regulations (21CFR58). The mice were divided into 7 groups, 10 mice each, wherein one group was control treated only with vehicle and groups 1-6 with a series of increasing concentrations of PSI in a vehicle comprising 50% propylene glycol, 30% ethanol, 20% deionized water. The concentrations were 0.006%, 0.012%, 0.025%, 0.05%, 0.11% and 0.5%.
The mice were anesthetized (50 μl Mouse Cocktail containing 3 ml ketamine, 2 ml small animal rompum, 5 ml NaCl), identified by ear punch code, weighed and the hair on the dorsal side removed by waxing as described in Example 6. After waxing, the animals were photographed. On the following day (day 1), 100 μl of PSI at the above concentrations in vehicle was brushed onto the area of removed hair. […]
On Day 7 mice were anesthetized and a biopsy of the dorsal treatment area taken using a 6 mm dermal punch; the specimens were fixed in 10% buffered formalin and embedded in paraffin wax. Sections were cut using a standard microtome.
Mice were monitored daily for signs of hair growth, and any hair growth was recorded by photography. On day 21 animals were euthanized (75 mg/kg body weight phenobarbital, IP injection), 2 cm hair samples were taken for optical based fiber analysis, and the remaining dorsal treatment area was fixed in 10% buffered formalin for further histological analysis. Analysis included quantification of hair thickness and quantification of mature hair follicles. Results were expressed as the mean =+/− the standard error of the mean. Data were analyzed by repeated measures of analysis of variance followed by the Tukey-Kramer post test P values of <0.05 were considered significant.

[4] = tested on: hair follicles; assay: Topical administration of PSI solution, hair growth; format: in vivo, mice
Protocol: PSI was prepared as a topical formulation, where the vehicle was 50% propylene glycol, 30% ethanol, 20% deionized water, at 0.1% concentration of PSI. The solution was applied 3 times a day for 5 days. The mice in a treated group were observed as compared to controls similarly treated with vehicle alone.
When the protocol above was repeated using a 0.5% solution of PSI in groups containing 5 mice each, the number of hairs per 0.8 mm^2 was 60 in the treated mice versus about 10 in the control group. The percentage of follicle area in a region of about 0.8 mm^2 was about 30% as an average in the treated group as compared to 15% as an average in the control group.

[5] = tested on: calvarial bone; assay: in vitro calvarial assay; format: cell-based
[6] = compared with proteasome inhibitors such as MG-132
[7] = topical 0.5% solution of PSI, 3 times a day for 5 days, groups of 5 mice

CCC[C@@H](C=O)NC(=O)[C@H](CC(C)C)NC(=O)[C@H](CC(C)C)NC(=O)OCc1ccccc1 [MG115, N-carbobenzoyl-Leu-Leu-Nva-CHO] (Cbz-Leu-Leu-[Nva]-aldehyde)
number of hair follicles ([1]; 10 mg/kg): stimulated an increase in the number of hair follicles

CC(C)C[C@@H](C=O)NC(=O)[C@H](CC(C)C)NC(=O)[C@H](CC(C)C)NC(=O)OCc1ccccc1 [MG132, N-carbobenzoyl-Leu-Leu-Leu-CHO] (Cbz-Leu-Leu-Leu-aldehyde)
number of hair follicles ([1]; 10 mg/kg): stimulated an increase in the number of hair follicles

CC[C@H](C)[C@H](NC(=O)OCc1ccccc1)C(=O)N[C@@H](CCC(=O)OC(C)(C)C)C(=O)N[C@@H](C)C(=O)N[C@H](C=O)CC(C)C [PSI, N-carbobenzoyl-Ile-Glu-(OtBu)-Ala-Leu-CHO] (Cbz-IE(OtBu)AL-aldehyde)
hair growth rate versus control group ([2]; by day 18): hair growth rate greater than that of the mice in the control group | number of hair follicles (dermal punch biopsy histology) versus control mice ([2]; day 7): large increase in the number of hair follicles | effect on quiescent hair follicles (histology) ([2]; day 21): stimulated to differentiate into mature hair follicles and to migrate to the lower region of the dermis | mature hair follicles in dermis of scalp and dorsal region (histology) ([2]; day 21): mature hair follicles in numbers much greater than in controls had migrated to the lower region of the dermis | efficacy on hair growth (additional experiments) ([3]; 0.1% applied topically 3 times a day for 5 days): also effective | gross observation of hair growth ([3]; mice receiving an effective topical dose): an enhanced rate of hair growth, a thickening of hair diameter, increase in sheath diameter, and differentiation of quiescent hair follicles into more mature forms | minimal effective dose (topical concentration) ([3]; topical, applied 1 time a day for 4 days, 100 μl in 50% propylene glycol, 30% ethanol, 20% water): 0.5% | number of hair follicles (histology of the calvaria) versus control mice ([1]; 5mg/kg/day injected three times a day for 5 days over the calvaria, sacrificed sixteen days later): strikingly large increase in the number of hair follicles | hair growth relative to vehicle controls ([4]; topical 0.1% PSI in 50% propylene glycol, 30% ethanol, 20% water, 3 times a day for 5 days, day 16): stimulation of hair growth relative to the controls | number of hairs per 0.8 mm^2 [4, 7]: 60 per 0.8 mm^2 | percentage of follicle area in a region of about 0.8 mm^2 (average) [4, 7]: about 30% | thickness of hair and hair shaft ([4]; topical PSI): able to thicken both the hair and the hair shaft | hair count ([4]; topical PSI, follicle area greater than 0.01 mm^2): increases hair count

CC(=O)N[C@@H](CSC(=O)[C@]1([C@@H](O)C(C)C)NC(=O)[C@H](C)[C@@H]1O)C(=O)O [lactacysin, lactacystin]
number of hair follicles ([1]; dose not given): stimulated an increase in the number of hair follicles

CC(=O)CCCCn1c(=O)c2c(ncn2C)n(C)c1=O [pentoxyfilline]
activity in the in vitro calvarial assay [5]: active

C=C(C)[C@]12C[C@@H](C)[C@@]34O[C@](Cc5ccccc5)(O[C@@H]1[C@@H]3C=C(COC(=O)Cc1ccc(O)c(OC)c1)C[C@]1(O)C(=O)C(C)=C[C@@H]41)O2 [resiniferatoxin]
activity in the ABA assay [6]: less active
